In this experiment the test system is polynucleotide expression in breast cell lines. Put plainly: Drug treatment study with expression profiling in 11 breast cell lines. It is filed as cell-based, human. Conditions: 0.4 μM BMS-A, 24 hours; only in sensitive breast cell lines. As to the method: Eleven breast cell lines (5 sensitive and 6 resistant cell lines as indicated in bold in the Table 1) were used in a drug treatment study. Cells were treated with or without the BMS-A compound (0.4 μM) in 0.1% DMSO for 24 hours. Expression profiling was performed, the polynucleotide expression of a cell line treated with drug was compared pair-wisely to the polynucleotide expression of the same cell line without drug treatment. […]
Cells were treated with or without the BMS-A compound (0.4 μM) in 0.1% DMSO for 24 hours. Expression profiling was performed, and the data were analyzed using GeneChip® Expression Analysis software MAS 5.0 (Affymetrix, Santa Clara, Calif.). […] A change in p-value was calculated, indicating an increase, decrease or no change in polynucleotide expression. […]
The breast cells were grown under standard cell culture conditions: RPMI 1640 supplemented to contain 10% fetal bovine serum, 100 IU/ml penicillin, […], 2 mM L-glutamine and 10 mM Hepes (all from GibcoBRL, Rockville, Md.). […] The quality of the RNA was assessed by measuring the 28s:18s ribosomal RNA ratio using an Agilent 2100 bioanalyzer (Agilent Technologies, Rockville, Md.). The concentration of total RNA was determined spectrophotometrically. […]

Structures are written as SMILES.

Results on one compound are retold here after US7537891B2, “Identification of polynucleotides for predicting activity of compounds that interact with and/or modulate protein tyrosine kinases and/or protein tyrosine kinase pathways in breast cells” (Bristol-Myers Squibb Company, priority 2002, dated 2009).

For the compound `Cc1nc(Nc2ncc(C(=O)Nc3c(C)cccc3Cl)s2)cc(N2CCN(CCO)CC2)n1` [BMS-A], the EphA2 polynucleotide expression result is “down regulated” and the caveolin-2 polynucleotide expression entry is listed as “down regulated”.
